The structures appear in SMILES notation. Several values for one entry are separate records, joined by “and”; a condition that tells them apart may be missing. Equal entries are not always repeated.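 Assay format: 96-well plates, 48-hour exposure. GI50: concentration for 50% inhibition of growth. At the TGI there is no net growth.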

What all share (experiment): NCI anticancer screen, dose series, 48 h
Assay [1] relates to A549 NSCLC.
Assay [2] concerns SR leukemia.
In assay [3] the test system is OVCAR-5 ovarian.
In assay [4] the test system is OVCAR-8 ovarian.
Assay [5] relates to EKVX NSCLC.
Assay [6] relates to HOP-92 NSCLC.
Assay [7] has as its system SF-539 CNS.
The subject of assay [8] is 786-0 renal.
In assay [9] the test system is MCF7 breast.
The subject of assay [10] is UO-31 renal.

For `COc1cc2c(c(OC)c1OC)-c1ccc([O-])c(=O)cc1[C@@H](NC(C)=O)CC2.COc1cc2c(c(OC)c1OC)-c1ccc([O-])c(=O)cc1[C@@H](NC(C)=O)CC2.[Cu+2]`, the GI50 in [1] is 6.5 µM; in assay [2] it was 1.54 µM; in [3], 14.8 µM; in assay [4] it was 3.77 µM; in assay [5] it was 4.64 µM; in assay [6], 17.5 µM. Further, the GI50 in assay [7] is 1.88 µM; in [8], 7.9 µM; in assay [9] it was 3.33 µM; in assay [10], 4.1 µM. The TGI is over 100 µM in assay [1]; 6.89 µM in assay [2]; over 100 µM in assay [3]; 34.5 µM in assay [4]; over 100 µM in assay [5]; over 100 µM in assay [6]. The TGI in assay [7] is 4.53 µM; in assay [8], over 100 µM; in assay [9] it was over 100 µM; in assay [10] it was 41.9 µM.

`C=C(C)C(=O)NC(N)=NC#N`: the TGI was 307 µM in [1]; 87.9 µM and 132 µM in [2]; 304 µM in [3]; > 90 µM and 287 µM in assay [4]; > 90 µM and 392 µM in [5]; 33.7 µM and 63.1 µM in assay [6]. Besides, the TGI in assay [7] is 73.3 µM and 290 µM; in [8], 140 µM; in assay [9] it was 248 µM; in assay [10], > 92.1 µM and 265 µM. For the same compound, the GI50 was 119 µM in assay [4]; 165 µM in assay [5]; 26.7 µM in [6]; 154 µM in [7]; 30 µM in [8]; 109 µM in assay [9]. For the same compound, the GI50 in [10] was 134 µM.

As to `COc1cccc(-c2nn(-c3ccccc3)cc2-c2ccnc(NCCNS(=O)(=O)c3ccc(C(F)(F)F)cc3)c2)c1`, the GI50 is 3.71 µM in assay [1]; 1.77 µM in [2]; 4.98 µM in assay [3]; 4.07 µM in assay [4]; 3.16 µM in [5]; 2.12 µM in assay [6]. The GI50 is 2.48 µM in [7], 2.63 µM in [8], 3.15 µM in assay [9] and 2.61 µM in [10]. Moreover, the TGI in assay [1] was 32 µM; in assay [2] it was 4.6 µM; in assay [3] it was over 100 µM; in assay [4], 46.2 µM; in [5], over 100 µM; in [6], 6.83 µM. Besides, the TGI in assay [7] was 6.28 µM; in assay [8] it was 21.4 µM; in assay [9] it was 39.1 µM; in assay [10], over 100 µM.

Regarding `Cc1cc(Cl)ccc1Nc1sc(C(=O)c2cc3cc(Cl)ccc3o2)c(N)c1C#N`, the TGI is over 54.7 µM in assay [1]; over 100 µM in assay [2]; over 100 µM in assay [3]; over 87.2 µM in assay [4]; over 100 µM in assay [5]; over 100 µM in [6]. Moreover, the TGI is over 66 µM in assay [7], 28.6 µM in assay [8], 59.6 µM in assay [9] and over 100 µM in [10].

With `O=C(OC(C(=O)O)C(OC(=O)c1ccccc1)C(=O)O)c1ccccc1` (stereo not given) (tested in a mixture with another compound), the TGI is over 100 µM in assay [1]; over 100 µM in [2]; over 100 µM in assay [3]; over 100 µM in assay [4]; over 100 µM in assay [5]; 55.9 µM in [6]. Further, the TGI in [7], in assay [8], in assay [9] and in assay [10] was over 100 µM throughout.

Consider `COc1ccc(C(=S)c2cc(OC)c(OC)c(OC)c2)cc1OC(=O)CCl`, for which the GI50 in assay [1] was 0.0849 µM; in assay [2], under 0.01 µM; in [3], 3.32 µM; in [4] it was 0.0355 µM; in assay [5], 0.652 µM; in [6], 0.55 µM. The GI50 is under 0.011 µM in [7], 0.183 µM in assay [8], under 0.0156 µM in assay [9] and 0.144 µM in assay [10]. In addition, the TGI in assay [1], in [2], in assay [3], in [4], in assay [5] and in [6] was over 100 µM each time. Further, the TGI is 0.0499 µM in assay [7], over 100 µM in assay [8], 43.5 µM in assay [9] and over 95.7 µM in assay [10].

Take `CC(C)C1C(=O)N2CCCC2C2(O)OC(NC(=O)C3C=C4c5cccc6[nH]cc(c56)CC4N(C)C3)(C(C)C)C(=O)N12` (stereo not given): the TGI came out at 67.3 µM in assay [1]; 68.3 µM in assay [2]; 29.7 µM in [3]; 52.9 µM in [4]; 73.1 µM in assay [5]; 30.1 µM in assay [6]. For the same compound, the TGI in [7] was 52.4 µM; in assay [8], 33 µM; in assay [9], over 100 µM; in [10], 37 µM.

Turning to `Nc1nc(N)c2nc(CNc3ccc(C(=O)CC(CCC(=O)O)C(=O)O)cc3)cnc2n1` (stereo not given), the GI50 in assay [1] was 0.153 µM; in [2], under 0.019 µM; in assay [4] it was 0.166 µM; in assay [5], 0.517 µM; in assay [6], over 100 µM; in [7], 0.176 µM. Further, the GI50 in assay [8] was 0.0566 µM; in assay [9], 0.0714 µM; in [10] it was 0.168 µM. Moreover, the TGI in assay [1], in [3], in assay [4], in assay [5], in assay [6] and in [7] was over 100 µM in each case. The TGI in assay [8], in [9] and in assay [10] was over 100 µM each time.

In the case of `CN1CCN(C(=O)c2ccc(NC(=O)Nc3ccc(N(C)c4ccnc(Nc5ccc(CS(C)(=O)=O)cc5)n4)cc3)cc2)CC1`, the GI50 was over 23.3 µM in assay [1]; over 12.7 µM in assay [2]; over 25 µM in [3]; 7.22 µM in [4]; over 25 µM in assay [5]; over 25 µM in assay [6]. Also, the GI50 in assay [7] is 11.2 µM; in assay [8] it was over 25 µM; in assay [9], 7.41 µM; in assay [10], over 25 µM. Also, the TGI in [1] was over 25 µM; in assay [2] it was over 25 µM; in assay [3] it was over 25 µM; in assay [4] it was over 24 µM; in [5], over 25 µM; in assay [6] it was over 25 µM. Further, the TGI in assay [7], in [8], in assay [9] and in assay [10] was over 25 µM throughout.
